Assay results from PubChem BioAssay (NCI).
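All cell lines were grown in 96-well plates and treated with compound for 48 hours. TGI denotes the concentration required for complete inhibition of growth.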

Assays:
Assay in all cases: inhibition of tumour cell growth, NCI panel, 48 h
DU-145 prostate = test system: DU-145 prostate
LOX IMVI melanoma = test system: LOX IMVI melanoma
MOLT-4 leukemia = test system: MOLT-4 leukemia
OVCAR-5 ovarian = test system: OVCAR-5 ovarian
SF-268 CNS = test system: SF-268 CNS
SK-MEL-28 melanoma = test system: SK-MEL-28 melanoma
SW-620 colon = test system: SW-620 colon
T-47D breast = test system: T-47D breast
TK-10 renal = test system: TK-10 renal
UO-31 renal = test system: UO-31 renal

Measured: TGI

CC(O)C1CC1(CO)CNc1cc(Cl)nc(N)n1 (stereo not given)
> 100 µM: DU-145 prostate | LOX IMVI melanoma | MOLT-4 leukemia | OVCAR-5 ovarian | SF-268 CNS | SK-MEL-28 melanoma | SW-620 colon | T-47D breast | TK-10 renal | UO-31 renal

CN(C)Cc1cc(C(=O)/C=C/c2ccc(O)cc2)cc(CN(C)C)c1O
> 100 µM: DU-145 prostate | LOX IMVI melanoma | MOLT-4 leukemia | OVCAR-5 ovarian | SF-268 CNS | SK-MEL-28 melanoma | SW-620 colon | T-47D breast | TK-10 renal | UO-31 renal
